Holding throughout (assay type): cell-based, Mongrel dogs
The test system of assay [1] is isolated coronary artery. Description: Relaxation of isolated coronary artery. Conditions: Canis lupus familiaris, read-out: ED50 (the source's name). The protocol:
Mongrel dogs of either sex (body weight 10-17 kg) were killed by bleeding under anesthetization with pentobarbital sodium (tradename: Nembutai ® Abbott Co., USA). Thereafter, the basilar and femoral arteries were extracted and attached blood and connective tissues were carefully removed in a dish filled with Krebs bicarbonate solution (composition: NaCl 117.7 mM, KC1 4.7 mM, CaCl2 2.5 mM, MgSo4 1.2 mM, glucose 10 mM, NaHCO3 24.4 mM). Thereafter, ring preparations were made therefrom. This preparation was suspended in a bathing tube of 10 ml filled with Krebs bicarbonate solution aerated with 95 % 02 and 5 % C02.
Then, samples of basilar and femoral arteries were contracted by application of 50 mM KC1. After confirming that the contraction was sustained, (a) compound (I) (erythro form) lactate, (b) compound (I) (threo form) lactate and (c) ifenprodil; [2-(4-benzyl- piperidino-l-(4-hydroxyphenyl)propane-l-ol] tartrate were, respectively, administered as test compounds and the dose-relaxation response was examined.
A strain gauge transducer (model SB-lT manufactured by Nihon Koden Co.) was employed for recording of change of tension and isometric contraction was recorded on a recorder (model QPD 53 made by Hitachi Ltd . ) .
Experiments were conducted in accordance with the method of Test Example 2 with use of the coronary artery in place of the basilar and femoral arteries. […]

Assay [2] concerns α2-adrenoceptor. Description: Antagonism of clonidine (α2-agonist) contraction in saphenous vein. The following applies: α2 - agonist: clonidine, competitive antagonism, 15 min. From the text:
In this experiment, phenylephrine and clonidine were used as al-agonist and a2-agonist, respectively, and these agonists were cumulatively applied to obtain a dose-response curve.

Assay [3] concerns isolated femoral artery. Description: K-induced 45Ca uptake in isolated femoral artery. The following applies: 50 mM KCl alone 586.0 ± 17.9. From the text: Using the isolated basilar artery and femoral artery treated in accordance with Test Example 2, the activity of (a) compound (I) (lactate), (b) ifenprodil tartrate and (c) verapamil hydrochloride against ^45Ca influx and ^45Ca uptake were examined by the conventional method (J. Membran. Biol., vol. 59, page 19, 1981).

Where a name gives a salt, the structure may show the parent alone.

Turning to `CC(C(O)c1ccc(O)cc1)N1CCC(Cc2ccccc2)CC1` (centres unmarked) [Ifenprodil tartrate], the EC50 in assay [1] turned out to be 26 µM. For the same compound, the pA2 value in assay [2] is recorded as 8.31. For the same compound, the entries for the “K-induced ^45Ca uptake in isolated femoral artery” value in assay [3] (5 x 10^-5 M + 50 mM KCl), in assay [3] (10^-4 M + 50 mM KCl) and in assay [3] (10^-5 M + 50 mM KCl) were 471.2 ± 40.0 n mol/g wt. tissue, 486.5 ± 20.9 n mol/g wt. tissue and 635.2 ± 41.4 n mol/g wt. tissue, respectively.

The values are drawn from patent EP0232423A1, “CIRCULATION IMPROVING AGENT” (GRELAN PHARMACEUTICAL CO., LTD., priority 1985, dated 1987).
